According to BindingDB's records for doi:10.1021/jm00126a013 (University of California, 1989):

Legend:
[1] = target: Vesicular acetylcholine transporter (Torpedo californica); assay: Inhibition of active transport of [3H]acetylcholine using purified Torpedo californica synaptic vesicles
[2] = target: Vesicular acetylcholine transporter (Torpedo californica); assay: as above; remark: listed apart in the source

SMILES | IC50 [1] [nM] | IC50 [2] [nM]
COc1ccccc1N1CCN(C2CC3CCCCC3CC2O)CC1 (configuration not stated) | 300 | –
CN(Cc1ccccc1)C1CCCCC1O (configuration not stated) | – | 10000
Nc1cccc2c1CC(O)C(N1CCC(c3ccccc3)CC1)C2 (configuration not stated) | – | 300
CC(=O)Nc1ccc(I)c2c1CC(N1CCC(c3ccccc3)CC1)C(O)C2 (configuration not stated) | – | 300
OC1CCCCC1N1CC2CCC(CC2)C1 (configuration not stated) | – | 20000
OC1CCCCC1N1CC=C(c2ccc(Cl)cc2)CC1 (configuration not stated) | – | 200
O=C(Nc1cccc2c1CC(O)C(N1CCC(c3ccccc3)CC1)C2)C(F)(F)F (configuration not stated) | – | 2000
CCC(CN1CCC(c2ccccc2)CC1)OC(C)=O (configuration not stated) | – | 800
OC[C@H]1CC[C@@H](O)[C@H](N2CCC(c3ccccc3)CC2)C1 | – | 800
CC(=O)Nc1ccc(C2CCN(C3CCCCC3O)CC2)cc1 (configuration not stated) | – | 20000
OC1CCCCC1N1CCN(Cc2ccc3c(c2)OCO3)CC1 (configuration not stated) | – | 300
O=C(O)CCC(=O)Nc1cccc2c1CC(N1CCC(c3ccccc3)CC1)C(O)C2 (configuration not stated) | – | 50
OC1CCCCC1N1CCN(c2ccccc2)CC1 (configuration not stated) | – | 300
CC(C)(C)[C@H]1CC[C@@H](O)[C@H](N2CCC(c3ccccc3)CC2)C1 [trans-(4S)-4-tert-butyl-2-(4-phenylpiperidin-1-yl)cyclohexanol] | – | 20
CC(=O)OCC[N+]1(C)CCC(c2ccccc2)CC1 (configuration not stated) | – | 4000
O[C@H]1CCCC[C@H]1CN1CCC(c2ccccc2)CC1 | – | 1000
CC1(O)CCCC[C@H]1N1CCC(c2ccccc2)CC1 (some centres not stated) | – | 6000
Cc1ccc(C)c(N2CCN(C3CCCCC3O)CC2)c1 (configuration not stated) | – | 100
O=C(CCC(=O)Nc1cccc2c1CC(N1CCC(c3ccccc3)CC1)C(O)C2)NNC(=O)CCC(=O)Nc1cccc2c1CC(N1CCC(c3ccccc3)CC1)C(O)C2 (configuration not stated) [N-[6-Hydroxy-7-(4-phenyl-piperidin-1-yl)-5,6,7,8-tetrahydro-naphthalen-1-yl]-4-(N'-{3-[6-hydroxy-7-(4-phenyl-piperidin-1-yl)-5,6,7,8-tetrahydro-naphthalen-1-ylcarbamoyl]-propionyl}-hydrazino)-4-oxo-butyramide] | – | 1000
COc1ccc(N2CCN(C3CCCCC3O)CC2)cc1 (configuration not stated) | – | 300
CCC(O)CN1CCC(c2ccccc2)CC1 (configuration not stated) | – | 300
CCC(O)C[N+]1(C)CCC(c2ccccc2)CC1 (configuration not stated) | – | 2000
O[C@H]1[C@H](N2CCC(c3ccccc3)CC2)CCC[C@H]1c1ccccc1 | – | 600

SMILES | IC50 [1] [nM] | IC50 [2] [nM]
OC1CCCCC1N1CCCCC1 (configuration not stated) | – | > 40000
CC1(c2ccccc2)CCCN(C2CCCCC2O)C1 (configuration not stated) | – | 4000
OC1CCCCC1N1C=NC(c2ccccc2)C1 (configuration not stated) | – | 40000
OC1CCCCC1N1CCC(CCCc2ccccc2)CC1 (configuration not stated) | – | 70
OC1C2CCC1C(N1CCC(c3ccccc3)CC1)C2 (configuration not stated) | – | 10000
O=C(c1ccccc1)N1CCN(C2CCCCC2O)CC1 (configuration not stated) | – | 10000
CN(CCCc1ccccc1)C1CCCCC1O (configuration not stated) | – | 2000
OC1CCCC1N1CCC(c2ccccc2)CC1 (configuration not stated) | – | 2000
OC1CCCCC1NC1CCc2ccccc21 (configuration not stated) | – | 3000
OC1CCCCC1N1CCC(C2CCN(C3CCCCC3O)CC2)CC1 (configuration not stated) | – | 200
Cc1ccccc1N1CCN(C2CCCCC2O)CC1 (configuration not stated) | – | 100
COc1ccc2c3c1OC1C(O)C=CC4C(C2)N(C2CCCCC2O)CCC341 (configuration not stated) | – | 80000
SC1CCCCC1N1CCC(c2ccccc2)CC1 (configuration not stated) | – | 4000
O=C(CCCCC1SCC2NC(=O)NC21)Nc1cccc2c1CC(N1CCC(c3ccccc3)CC1)C(O)C2 (configuration not stated) | – | 100
OC1CN(C2CCCCC2O)CCC1c1ccccc1 (configuration not stated) | – | 200
OC1CCCCC1N1CCC(CCCC2CCN(C3CCCCC3O)CC2)CC1 (configuration not stated) | – | 200
C[N+]1(C2CCCCC2O)CCC(c2ccccc2)CC1 (configuration not stated) | – | > 1000
OC1CCCCC1N1CCC(c2ccc(Cl)cc2)CC1 (configuration not stated) | – | 100
O=C(O)CCC(=O)Nc1cccc2c1CC(O)C(N1CCC(c3ccccc3)CC1)C2 (configuration not stated) | – | 500
O=[N+]([O-])c1ccc(C2CCN(C3CCCCC3O)CC2)c([N+](=O)[O-])c1 (configuration not stated) | – | 300
C[N+]1(CCO)CCC(c2ccccc2)CC1 (configuration not stated) | – | 8000
CC(=O)OC1CCCCC1N1CCC(c2ccccc2)CC1 (configuration not stated) | – | 2000
Nc1cccc2c1CC(N1CCC(c3ccccc3)CC1)C(O)C2 (configuration not stated) | – | 100

SMILES | IC50 [1] [nM] | IC50 [2] [nM]
CC(=O)OCCN1CCC(c2ccccc2)CC1 | – | 9000
OCCN1CCC(c2ccccc2)CC1 | – | 10000
CN(CCc1ccccc1)C1CCCCC1O (configuration not stated) | – | 20000
O=C1CCC2(O)C3Cc4ccc(O)c5c4C2(CCN3C2CCCCC2O)C1O5 (configuration not stated) | – | > 100000
CC(=O)OC1CCCCC1[N+]1(C)CCC(c2ccccc2)CC1 (configuration not stated) | – | 5000
CNc1ccc(C2CCN(C3CCCCC3O)CC2)cc1 (configuration not stated) | – | 400
CC1CN(C2CCCCC2O)CCN1c1ccccc1 (configuration not stated) | – | 300
CC(C)(C)[C@H]1CC[C@@H](N2CCC(c3ccccc3)CC2)[C@H](O)C1 | – | 90
O=C(CCCCC1SCC2NC(=O)NC21)NCC(=O)NCC(=O)Nc1cccc2c1CC(N1CCC(c3ccccc3)CC1)C(O)C2 (configuration not stated) | – | 200
O=[N+]([O-])c1ccc(C2CCN(C3CCCCC3O)CC2)cc1 (configuration not stated) | – | 100
O=c1[nH]c2ccccc2n1C1CCN(C2CCCCC2O)CC1 (configuration not stated) | – | 1000
OC1CCCCC1N1CCC(CCC2CCN(C3CCCCC3O)CC2)CC1 (configuration not stated) | – | > 1000
CC(=O)Nc1cccc2c1CC(O)C(N1CCC(c3ccccc3)CC1)C2 (configuration not stated) | – | > 2000
O[C@@H]1[C@H](O)CCC[C@H]1N1CCC(c2ccccc2)CC1 | – | 100
CN(C)c1ccc(C2CCN(C3CCCCC3O)CC2)cc1 (configuration not stated) | – | 300
CO[C@H]1CCC[C@@H](N2CCC(c3ccccc3)CC2)[C@@H]1O | – | 2000
OC1CCCCC1N1CC=C(c2ccccc2)CC1 (configuration not stated) | – | 200
OC1CCCCC1N1CCC(Cc2ccccc2)CC1 (configuration not stated) | – | 300
Nc1ccc(C2CCN(C3CCCCC3O)CC2)cc1 (configuration not stated) | – | 500
O[C@@H]1CCCC[C@H]1CN1CCC(c2ccccc2)CC1 | – | 2000
O=C1CCCCC1N1CCC(c2ccccc2)CC1 (configuration not stated) | – | 40000
